Experimental data taken from patent publication US10100058B2, “Fused heterocyclic compounds as CaM kinase inhibitors” (Gilead Sciences, Inc., priority 2016, dated 2018).

Biological target: recombinant CaMKIIδ (Homo sapiens (Human), UniProt Q13557)
Assay: CaMKIIδ biochemical assay (HTRF)
Details: 10 pM CaMKIIδ, 110 nM calmodulin, 12 μM ATP, 1 hour; read-out: CAMKIID-HTRF-384V2 (IC50 - nM)
Experimental: CaMKIIδ Biochemical Assay
The biochemical activity of recombinant CaMKIIδ was measured by monitoring the phosphorylation of a target peptide using Homogenous Time Resolved Fluorescence (HTRF) technology from CisBio Bioassays.

Row | IC50 | SMILES
1 | 0.29 nM | CCN(CC)[C@@H](C)CNC(=O)c1cc(-c2cnoc2)nc(-c2cnn3ccc(-c4cccs4)nc23)c1 [Example 335, (S)—N-(2-(diethylamino)propyl)-2-(isoxazol-4-yl)-6-(5-(thiophen-2-yl)pyrazolo[1,5-a]pyrimidin-3-yl)isonicotinamide]
2 | 0.1 nM | CCN(CC)[C@@H](C)CNC(=O)c1cc(-c2cc[nH]n2)nc(-c2cnn3ccc(-c4cccs4)nc23)c1 [Example 336, (S)—N-(2-(diethylamino)propyl)-2-(1H-pyrazol-3-yl)-6-(5-(thiophen-2-yl)pyrazolo[1,5-a]pyrimidin-3-yl)isonicotinamide]
3 | 0.33 nM | CCN(CC)[C@@H](C)CNC(=O)c1cc(-c2cnn3ccc(-c4cccs4)nc23)nc(-c2cnn3ccc(-c4cccs4)nc23)c1 [Example 337, (S)—N-(2-(diethylamino)propyl)-2,6-bis(5-(thiophen-2-yl)pyrazolo[1,5-a]pyrimidin-3-yl)isonicotinamide]
4 | 0.86 nM | CCN(CC)[C@@H](C)CNC(=O)c1cc(-c2nccs2)nc(-c2cnn3ccc(-c4cccs4)nc23)c1 [Example 338, (S)—N-(2-(diethylamino)propyl)-2-(thiazol-2-yl)-6-(5-(thiophen-2-yl)pyrazolo[1,5-a]pyrimidin-3-yl)isonicotinamide]
5 | 0.35 nM | CCN(CC)[C@@H](C)CNC(=O)c1cc(-c2ncco2)nc(-c2cnn3ccc(-c4cccs4)nc23)c1 [Example 339, (S)—N-(2-(diethylamino)propyl)-2-(oxazol-2-yl)-6-(5-(thiophen-2-yl)pyrazolo[1,5-a]pyrimidin-3-yl)isonicotinamide]
6 | 0.05 nM | CCN(CC)[C@@H](C)CNC(=O)c1cc(-c2cn[nH]c2)nc(-c2cnn3ccc(-c4cccs4)nc23)c1 [Example 340, (S)—N-(2-(diethylamino)propyl)-2-(1H-pyrazol-4-yl)-6-(5-(thiophen-2-yl)pyrazolo[1,5-a]pyrimidin-3-yl)isonicotinamide]
7 | 0.15 nM | CCN(CC)[C@@H](C)CNC(=O)c1cc(-c2cnn(CCC#N)c2)nc(-c2cnn3ccc(-c4cccs4)nc23)c1 [Example 341, (S)-2-(1-(2-cyanoethyl)-1H-pyrazol-4-yl)-N-(2-(diethylamino)propyl)-6-(5-(thiophen-2-yl)pyrazolo[1,5-a]pyrimidin-3-yl)isonicotinamide]
8 | 0.13 nM | CCN(CC)[C@@H](C)CNC(=O)c1cc(-c2cnn(C3COC3)c2)nc(-c2cnn3ccc(-c4cccs4)nc23)c1 [Example 342, (S)—N-(2-(diethylamino)propyl)-2-(1-(oxetan-3-yl)-1H-pyrazol-4-yl)-6-(5-(thiophen-2-yl)pyrazolo[1,5-a]pyrimidin-3-yl)isonicotinamide]
9 | 0.26 nM | CCN(CC)[C@@H](C)CNC(=O)c1cc(OC[C@H]2CCCO2)nc(-c2cnn3ccc(-c4cccs4)nc23)c1 [Example 343, N—((S)-2-(diethylamino)propyl)-2-(((R)-tetrahydrofuran-2-yl)methoxy)-6-(5-(thiophen-2-yl)pyrazolo[1,5-a]pyrimidin-3-yl)isonicotinamide]
10 | 0.56 nM | CCN(CC)[C@@H](C)CNC(=O)c1cc(OC[C@H](C)OC)nc(-c2cnn3ccc(-c4cccs4)nc23)c1 [Example 344, N—((S)-2-(diethylamino)propyl)-2-((S)-2-methoxypropoxy)-6-(5-(thiophen-2-yl)pyrazolo[1,5-a]pyrimidin-3-yl)isonicotinamide]
11 | 1.22 nM | CCN(CC)[C@@H](C)CNC(=O)c1cc(O[C@H]2CCOC2)nc(-c2cnn3ccc(-c4cccs4)nc23)c1 [Example 345, N—((S)-2-(diethylamino)propyl)-2-(((S)-tetrahydrofuran-3-yl)oxy)-6-(5-(thiophen-2-yl)pyrazolo[1,5-a]pyrimidin-3-yl)isonicotinamide]
12 | 1.07 nM | CCN(CC)[C@@H](C)CNC(=O)c1cc(O[C@@H]2CCOC2)nc(-c2cnn3ccc(-c4cccs4)nc23)c1 [Example 346, N—((S)-2-(diethylamino)propyl)-2-(((R)-tetrahydrofuran-3-yl)oxy)-6-(5-(thiophen-2-yl)pyrazolo[1,5-a]pyrimidin-3-yl)isonicotinamide]
13 | 0.56 nM | CCN(CC)[C@@H](C)CNC(=O)c1cc(OCC2(C)COC2)nc(-c2cnn3ccc(-c4cccs4)nc23)c1 [Example 349, (S)—N-(2-(diethylamino)propyl)-2-((3-methyloxetan-3-yl)methoxy)-6-(5-(thiophen-2-yl)pyrazolo[1,5-a]pyrimidin-3-yl)isonicotinamide]
14 | 0.31 nM | CCN(CC)[C@@H](C)CNC(=O)c1cc(OCCc2cnccn2)nc(-c2cnn3ccc(-c4cccs4)nc23)c1 [Example 350, (S)—N-(2-(diethylamino)propyl)-2-(2-(pyrazin-2-yl)ethoxy)-6-(5-(thiophen-2-yl)pyrazolo[1,5-a]pyrimidin-3-yl)isonicotinamide]
15 | 0.34 nM | CCN(CC)[C@@H](C)CNC(=O)c1cc(OCCCOC)nc(-c2cnn3ccc(-c4cccs4)nc23)c1 [Example 351, (S)—N-(2-(diethylamino)propyl)-2-(3-methoxypropoxy)-6-(5-(thiophen-2-yl)pyrazolo[1,5-a]pyrimidin-3-yl)isonicotinamide]
16 | 0.21 nM | CCN(CC)[C@@H](C)CNC(=O)c1cc(OCCN2CCOCC2)nc(-c2cnn3ccc(-c4cccs4)nc23)c1 [Example 352, (S)—N-(2-(diethylamino)propyl)-2-(2-morpholinoethoxy)-6-(5-(thiophen-2-yl)pyrazolo[1,5-a]pyrimidin-3-yl)isonicotinamide]
17 | 0.1 nM | CCN(CC)[C@@H](C)CNC(=O)c1cc(OCC(C)(C)O)nc(-c2cnn3ccc(-c4cccs4)nc23)c1 [Example 353, (S)—N-(2-(diethylamino)propyl)-2-(2-hydroxy-2-methylpropoxy)-6-(5-(thiophen-2-yl)pyrazolo[1,5-a]pyrimidin-3-yl)isonicotinamide]
18 | 1.05 nM | CCN(CC)[C@@H](C)CNC(=O)c1cc(OCc2cccnc2)nc(-c2cnn3ccc(-c4cccs4)nc23)c1 [Example 354, (S)—N-(2-(diethylamino)propyl)-2-(pyridin-3-ylmethoxy)-6-(5-(thiophen-2-yl)pyrazolo[1,5-a]pyrimidin-3-yl)isonicotinamide]
19 | 0.54 nM | CCN(CC)[C@@H](C)CNC(=O)c1cc(OCc2ccc[n+]([O-])c2)nc(-c2cnn3ccc(-c4cccs4)nc23)c1 [Example 355, (S)-3-(((4-((2-(diethylamino)propyl)carbamoyl)-6-(5-(thiophen-2-yl)pyrazolo[1,5-a]pyrimidin-3-yl)pyridin-2-yl)oxy)methyl)pyridine 1-oxide]
20 | 0.7 nM | CCC(CNC(=O)c1cc(-c2cnn3ccc(-c4cccs4)nc23)nc(N2CC[C@H]2C(=O)NC)c1)N(CC)CC (stereo partly drawn) [Example 356, N-(2-(diethylamino)butyl)-2-((S)-2-(methylcarbamoyl)azetidin-1-yl)-6-(5-(thiophen-2-yl)pyrazolo[1,5-a]pyrimidin-3-yl)isonicotinamide]
21 | 0.27 nM | CCCN(CC)[C@@H](C)CNC(=O)c1cc(-c2cnn3ccc(-c4cccs4)nc23)nc(N2CC[C@H]2C(=O)NC)c1 [Example 357, N—((S)-2-(ethyl(propyl)amino)propyl)-2-((S)-2-(methylcarbamyl)azetidin-1-yl)-6-(5-(thiophen-2-yl)pyrazolo[1,5-a]pyrimidin-3-yl)isonicotinamide]
22 | 0.46 nM | CCN(CC)[C@@H](CO)CNC(=O)c1cc(-c2cnn3ccc(-c4cccs4)nc23)nc(N2CC[C@H]2C(=O)NC)c1 [Example 358, N—((R)-2-(diethylamino)-3-hydroxypropyl)-2-((S)-2-(methylcarbamoyl)azetidin-1-yl)-6-(5-(thiophen-2-yl)pyrazolo[1,5-a]pyrimidin-3-yl)isonicotinamide]
23 | 0.35 nM | CCN(CC)[C@@H](CO)CNC(=O)c1cc(-c2cnn3ccc(-c4cccs4)nc23)nc(N2CC[C@H]2C(=O)NC)c1 [Example 359, N—((R)-2-(diethylamino)-3-hydroxypropyl)-2-((S)-2-(methylcarbamoyl)azetidin-1-yl)-6-(5-(thiophen-2-yl)pyrazolo[1,5-a]pyrimidin-3-yl)isonicotinamide]
24 | 2.98 nM | CCN(CC)CCNC(=O)c1cc(-c2cnn3ccc(-c4cccs4)nc23)nc(N2CC[C@H]2C(=O)NC)c1 [Example 360, (S)—N-(2-(diethylamino)ethyl)-2-(2-(methylcarbamoyl)azetidin-1-yl)-6-(5-(thiophen-2-yl)pyrazolo[1,5-a]pyrimidin-3-yl)isonicotinamide]
25 | 0.15 nM | CCN(CC)[C@@H](C)CNC(=O)c1cc(-c2cnn3ccc(-c4ccc(F)s4)nc23)nc(N2CC[C@H]2C(=O)NC)c1 [Example 361, N—((S)-2-(diethylamino)propyl)-2-(5-(5-fluorothiophen-2-yl)pyrazolo[1,5-a]pyrimidin-3-yl)-6-((S)-2-(methylcarbamoyl)azetidin-1-yl)isonicotinamide]
26 | 0.52 nM | CCN(CC)[C@@H](C)CNC(=O)c1cncc(-c2cnn3ccc(-c4cccs4)nc23)c1 [Example 362, (S)—N-(2-(diethylamino)propyl)-5-(5-(thiophen-2-yl)pyrazolo[1,5-a]pyrimidin-3-yl)nicotinamide]
27 | 1.3 nM | CCN(CC)[C@@H](C)CNC(=O)c1cc(-c2cnn3ccc(-c4cccs4)nc23)ccn1 [Example 363, (S)—N-(2-(diethylamino)propyl)-4-(5-(thiophen-2-yl)pyrazolo[1,5-a]pyrimidin-3-yl)picolinamide]
28 | 715 nM | CCN(CC)[C@@H](C)CNC(=O)c1cccc(-c2cnn3ccc(-c4cccs4)nc23)n1 [Example 364, (S)—N-(2-(diethylamino)propyl)-6-(5-(thiophen-2-yl)pyrazolo[1,5-a]pyrimidin-3-yl)picolinamide]
